# Patent publication US20070190628A1, “Yeast food composition for fuel ethanol production” (priority 2006, published 2007)
# System: active dry yeast “z”
# Assay: Individual nutritive elements added to normal gravity corn mash: fermentation rate and viable cell numbers
# Format: cell-based, Saccharomyces cerevisiae
# Protocol: Normal gravity corn mash was prepared using ground #2 yellow dent corn obtained from Commercial Alcohols Inc. (275 Bloomfield Road, Chatham, Ontario, Canada N7M 5J5). […] One part by weight of ground corn was dispersed into three parts of 50° C., sterile dH2O containing 1 mM CaCl2.2H2O. To minimize the development of excessive viscosity during gelatinization, 1.25 mL of high temperature (HT-2X) α-amylase such as was supplied by Alltech Inc. in Nicholasville, Ky., USA (HT-2X α-amylase is no longer available from Alltech), was added per litre of mash as the ground corn was dispersed. It should be noted that if Ca-independent alpha amylases are used such as Termamyl® SC supplied by Novozymes North America in Franklinton, N.C., USA, then the 1 mM CaCl2.2H2O is not required. Following the addition of the ground corn and a five-minute mixing period to produce a homogenous mixture, the temperature was increased until the mash reached 94° C. where it was held at this temperature for 60 min with continued stirring. The temperature of the gelatinized starch was then reduced to 80° C. and liquefied by a second dose of HT-2X αx-amylase (1.25 mL/L) with continued stirring for 30 min. Sterile Celstir® (Wheaton Scientific, Millville, N.J.) fermentor vessels were filled with 1 L aliquots of this mash. To each fermentor vessel, filter-sterilized (25 mm, 0.2 μm Acrodisc® syringe filter, Pall Corporation, Ann Arbor, Mich.) urea (Fisher Scientific, Co., NJ), was added to achieve a final concentration of 8 mM. Cold-sterilization of the mash was assured by the addition of 100 μL of diethyl pyrocarbonate (DEPC, Sigma Chemical Co.) per litre of mash mixing the mash mechanically (IKA-Labortechnik, Staufen, Germany) for 5-10 min followed by cooling the fermentor vessels at 4° C. cold room for ˜72 hrs. The fermentor vessels were then removed from the cold room, connected to 30° C. water bath circulators and mixed. Glucoamylase in the form of Allcholase II 400 supplied by Alltech Inc. was then added (1.5 mL/L mash) 30 min prior to yeast inoculation to initiate saccharification of the dextrins formed during gelatinization and liquefaction (it should be noted that Allcholase II 400 is no longer available and any glucoamylase may be used). The mash thus prepared contained 19-20 g of dissolved solids/100 mL of mash as determined by a digital density meter analyzer (model DMA-45, Anton Paar KG, Graz, Austria) maintained at 20° C.
# Eleven grams of a commercially available active dry yeast, designated as “z”, were rehydrated by dispersal in 99 mL of preheated 38° C., 0.1% (w/v) sterile water and incubation for 20 min with periodic shaking in a 38° C. water bath. Fermentor vessels containing normal density corn mash were prepared as described above and inoculated with sufficient active yeast to provide an initial viable cell count of 1×10^7 cells per mL mash. The optimal fermentation temperature for the active dry yeast “z” was determined by conducting fermentations at 30°, 34°, 36°, 38°, and 40° C.
# The effects of individual elements on yeast cell biomass production and fermentation in a fermentation feedstock were assessed by separately supplementing of corn mash with nitrogen, phosphorus, magnesium, sulphur and zinc. Nitrogen effects were assessed in corn mashes by the additions of urea to provide final concentrations in the mash of […]. Phosphorus effects were assessed in corn mashes amended with 16 mM urea, by the additions of (NH4)2HPO4 (BDH Chemicals Inc, Toronto, Ont., MW: 132.06) to provide final concentrations of 0, 0.1, 0.2, 0.4, 0.6, and 0.8 g of (NH4)2HPO4/L of mash. Magnesium effects were assessed in corn mashes amended with 16 mM urea, by the additions of MgSO4.7H2O (BDH Chemicals Inc., MW. 246.48) to provide final concentrations of 0, 0.025, 0.049, 0.074, 0.099, 0.148, 0.197 g of MgSO4.7H2O/L of mash. […]
smiles,measurement,setting,value
NC(N)=O [urea],highest yeast cell counts,corn mash with 8 mM and 16 mM urea,3.3×10^8 CFU/mL
same,increase of cell numbers,"corn mash with 8 mM and 16 mM urea, versus no urea",50%
same,increase of the rate of dissolved solids utilization,"urea 16-32 mM in corn mash, 30° C.",approximately 2 fold
same,urea supplementation rate at which the maximum fermentation rate was observed,urea tested up to 32 mM,16 mM
